Experimental data as given in patent US10639284B2, “Immunomodulator compounds” (CHEMOCENTRYX, INC., priority 2016, dated 2020).

Biological target: human PD-L1 / Human PD-1 (Homo sapiens (Human), UniProt Q9NZQ7)
Test: Enzyme-Linked Immunosorbent Assay (ELISA), PD-1/PD-L1 binding
Conditions: Table 2; plate-coated human PD-L1, biotinylated human PD-1; read-out: ELISA IC50
Description: Plates were coated with 1 μg/mL of human PD-L1 (obtained from R&D) in PBS overnight at 4° C. The wells were then blocked with PBS containing 2% BSA in PBS (W/V) with 0.05% TWEEN-20 for 1 hour at 37° C. The plates were washed 3 times with PBS/0.05% TWEEN-20 and the samples were diluted to 1:5 in dilution medium in the ELISA plates. Human PD-1 and biotin 0.3 μg/mL (ACRO Biosystems) were added and incubated for 1 hour at 37° C. then washed 3 times with PBS/0.05% TWEEN-20. A second block was added with PBS containing 2% BSA in PBS (W/V)/0.05% TWEEN-20 for 10 min at 37° C. and was washed 3 times with PBS/0.05% TWEEN-20. Streptavidin-HRP was added for 1 hour at 37° C. then washed 3 times with PBS/0.05% TWEEN-20. TMB substrate was added and reacted for 20 min at 37° C. A stop solution (2 N aqueous H2SO4) was added. The absorbance was read at 450 nm using a micro-plate spectrophotometer.
Compounds in Table 2 and Table 3 were prepared by methods as described in the Examples, and evaluated according to the assay below.

Chain of human PD-L1 / Human PD-1 (Q9NZQ7 19-239): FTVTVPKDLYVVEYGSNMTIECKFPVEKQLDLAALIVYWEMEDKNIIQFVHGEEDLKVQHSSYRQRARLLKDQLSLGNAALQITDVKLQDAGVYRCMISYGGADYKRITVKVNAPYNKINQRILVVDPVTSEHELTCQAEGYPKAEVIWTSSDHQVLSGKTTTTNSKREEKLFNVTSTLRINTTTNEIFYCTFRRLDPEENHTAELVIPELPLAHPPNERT

Compound	IC50 [µM]
N#Cc1cncc(COc2cc(OC3CCc4c(-c5ccccc5)cccc43)c(Cl)cc2CN[C@@H](CO)C(=O)O)c1 (some centres unmarked) [Example 1.001]	< 0.1
N#Cc1cncc(COc2cc(OC3CCc4c(-c5ccccc5)cccc43)c(Cl)cc2CNC[C@@H](O)CC(=O)O)c1 (some centres unmarked) [Example 1.002]	0.1 to 0.5
N#Cc1cncc(COc2cc(OC3CCc4c(-c5ccccc5)cccc43)c(Cl)cc2CNCc2nnn[nH]2)c1 (centres unmarked) [Example 1.003]	< 0.1
N#Cc1cncc(COc2cc(OC3CCc4c(-c5ccccc5)cccc43)c(Cl)cc2CNCCO)c1 (centres unmarked) [Example 1.004]	< 0.1
N#Cc1cncc(COc2cc(OC3CCc4c(-c5ccccc5)cccc43)c(Cl)cc2CN2CCCC[C@H]2C(=O)O)c1 (some centres unmarked) [Example 1.005]	< 0.1
N#Cc1cncc(COc2cc(OC3CCc4c(-c5ccccc5)cccc43)c(Cl)cc2CN2CCC2)c1 (centres unmarked) [Example 1.006]	0.1 to 0.5
N#Cc1cncc(COc2cc(OC3CCc4c(-c5ccccc5)cccc43)c(Cl)cc2CN2CC(O)C2)c1 (centres unmarked) [Example 1.007]	0.1 to 0.5
N#Cc1cncc(COc2cc(O[C@@H]3CCc4c(-c5ccccc5)cccc43)c(Cl)cc2CNC[C@@H](O)CC(=O)O)c1 [Example 1.008]	< 0.1
N#Cc1cncc(COc2cc(O[C@H]3CCc4c(-c5ccccc5)cccc43)c(Cl)cc2CNC[C@@H](O)CC(=O)O)c1 [Example 1.009]	< 0.1
N#Cc1cncc(COc2cc(O[C@H]3CCc4c(-c5ccccc5)cccc43)c(Cl)cc2CNCCn2nn[nH]c2=O)c1 [Example 1.010]	0.1 to 0.5
O=C(O)[C@H](CO)NCc1cc(Cl)c(OC2CCc3c(-c4ccccc4)cccc32)cc1OCc1cccnc1 (some centres unmarked) [Example 1.011]	0.5 to 20
CC(C)(O)CNCc1cc(Cl)c(O[C@H]2CCc3c(-c4ccccc4)cccc32)cc1OCc1cncc(C#N)c1 [Example 1.012]	0.5 to 20
CC(C)(CNCc1cc(Cl)c(O[C@H]2CCc3c(-c4ccccc4)cccc32)cc1OCc1cncc(C#N)c1)C(=O)O [Example 1.013]	0.5 to 20
N#Cc1cncc(COc2cc(O[C@H]3CCc4c(-c5ccccc5)cccc43)c(Cl)cc2CNCC2CCC(=O)N2)c1 (some centres unmarked) [Example 1.014]	0.1 to 0.5
N#Cc1cncc(COc2cc(O[C@H]3CCc4c(-c5ccccc5)cccc43)c(Cl)cc2CNCc2ccn[nH]2)c1 [Example 1.015]	0.5 to 20

Second part, the compound after the results:

IC50 [µM]	Compound
0.1 to 0.5	N#Cc1cncc(COc2cc(O[C@H]3CCc4c(-c5ccccc5)cccc43)c(Cl)cc2CN2CC(O)C2)c1 [Example 2.001]
< 0.1	N#Cc1cncc(COc2cc(O[C@H]3CCc4c(-c5ccccc5)cccc43)c(Cl)cc2CN[C@@H](CO)C(=O)O)c1 [Example 2.002]
< 0.1	N#Cc1cncc(COc2cc(O[C@H]3CCc4c(-c5ccccc5)cccc43)c(Cl)cc2CN2CC(C(=O)O)C2)c1 [Example 2.003]
< 0.1	N#Cc1cncc(COc2cc(O[C@H]3CCc4c(-c5ccccc5F)cccc43)c(Cl)cc2CN[C@@H](CO)C(=O)O)c1 [Example 2.004]
< 0.1	N#Cc1cncc(COc2cc(O[C@H]3CCc4c(-c5ccccc5Cl)cccc43)c(Cl)cc2CN[C@@H](CO)C(=O)O)c1 [Example 2.005]
< 0.1	Cc1ccccc1-c1cccc2c1CC[C@@H]2Oc1cc(OCc2cncc(C#N)c2)c(CN[C@@H](CO)C(=O)O)cc1Cl [Example 2.006]
0.1 to 0.5	COc1cc(O[C@H]2CCc3c(-c4ccccc4)cccc32)c(Cl)cc1CN[C@@H](CO)C(=O)O [Example 2.007]
0.1 to 0.5	N#Cc1cncc(COc2cc(O[C@H]3CCc4c(-c5ccc(F)cc5)cccc43)c(Cl)cc2CN[C@@H](CO)C(=O)O)c1 [Example 2.008]
0.5 to 20	COc1ccccc1-c1cccc2c1CC[C@@H]2Oc1cc(OCc2cncc(C#N)c2)c(CN[C@@H](CO)C(=O)O)cc1Cl [Example 2.009]
< 0.1	N#Cc1cncc(COc2cc(O[C@H]3CCc4c(-c5cccc(F)c5)cccc43)c(Cl)cc2CN[C@@H](CO)C(=O)O)c1 [Example 2.010]
0.5 to 20	CC(C)Oc1cc(O[C@H]2CCc3c(-c4ccccc4)cccc32)c(Cl)cc1CN[C@@H](CO)C(=O)O [Example 2.011]
